This series is described as follows: Pharmacokinetic profile after oral administration in Beagle dogs. It counts as in vivo. The conditions noted are these: dog, plasma, 10.6 mg/kg, Compound A in Water for Injection. How it is done: Macrogol Glyceride formulations were orally administered in Beagle dogs as extemporaneous suspension in PBS at a dose of 10.6 mg/kg following the protocol below, by gavage in a volume of 2 mL/kg and bulk formulation by forced introduction into the throat.
The formulations were administered to the animals which had fasted overnight (i.e. for about 16 hours) before treatment, food was allowed again 4 hours after treatment.
Macrogol Glyceride formulations (1) and (2) were orally administered as described above. A wash-out interval between the administration of formulation (1) and of formulations (2) was of at least 1 week.
6 Beagle dogs (3 males and 3 females) of about 10-13 kg of bodyweight and of age 9 to 12 months were used. Animals were weighed fasted before administration and the body weight recorded.
Blood (at least 2.5 ml) was collected from a jugular vein into heparinised tubes before and after dosing, at the following 15 times:
Blood was centrifuged within 15 min at about 2500 g at +4° C. for 10 min. Blood cells were discharged and plasma obtained was divided into 3 aliquots (at least 0.3 mL each). The plasma concentrations of Compound A (free base of Compound A, mesylate) in the unknown dog plasma samples was determined by a High Performance Liquid Chromatography/Mass Spectrometry (HPLC/MS). […]

The values below come from patent US7838522B2, “Benzothiazole formulations and use thereof” (Ares Trading S.A., priority 2004, dated 2010).

The bioavailability is dose-corrected exposure relative to a reference, in per cent. A high value points to much systemic uptake.

Structures are written as SMILES. A value given as a limit tells only on which side of the number the result lay.

On to `N#CC(c1ccnc(OCc2ccc(CN3CCOCC3)cc2)n1)c1nc2ccccc2s1` (stereo not shown) [Compound A, 1,3 benzothiazol-2-yl-[2-(4-morpholin-4-ylmethyl-benzyloxy)-pyrimidin-4-yl]-acetonitrile], for which the bioavailability was below 15%.
